Holding throughout (assay): biochemical
Assay type in all cases: biochemical

The target in test [1] is T1, 382 unique human kinases (Homo sapiens, UniProt P10721).
T1 construct: purchased Reaction Biology (HotSpot contract assay)
The settings on record: c-Kit, 10 uM; for remaining activity at 10 µM: read-out: % Enzyme Activity (relative to DMSO controls).

Test [2] deals with T2, 382 unique human kinases (Homo sapiens, UniProt P15056, V600A).
T2 construct: purchased Reaction Biology (HotSpot contract assay)
The settings on record: BRAF (V600A), compound at 10 uM, duplicate values; for remaining activity at 10 µM: read-out: % Enzyme Activity (relative to DMSO controls).

Test [3] addresses T3, 382 unique human kinases (Homo sapiens, UniProt P22607, V555M).
T3 construct: purchased Reaction Biology (HotSpot contract assay)
As to conditions: FGFR3 (V555M), 10 uM; for remaining activity at 10 µM: read-out: % Enzyme Activity (relative to DMSO controls).

Test [4] concerns the target T4, 382 unique human kinases (Homo sapiens, UniProt P36897).
T4 construct: purchased Reaction Biology (HotSpot contract assay)
T4 sequence (P36897 34-503): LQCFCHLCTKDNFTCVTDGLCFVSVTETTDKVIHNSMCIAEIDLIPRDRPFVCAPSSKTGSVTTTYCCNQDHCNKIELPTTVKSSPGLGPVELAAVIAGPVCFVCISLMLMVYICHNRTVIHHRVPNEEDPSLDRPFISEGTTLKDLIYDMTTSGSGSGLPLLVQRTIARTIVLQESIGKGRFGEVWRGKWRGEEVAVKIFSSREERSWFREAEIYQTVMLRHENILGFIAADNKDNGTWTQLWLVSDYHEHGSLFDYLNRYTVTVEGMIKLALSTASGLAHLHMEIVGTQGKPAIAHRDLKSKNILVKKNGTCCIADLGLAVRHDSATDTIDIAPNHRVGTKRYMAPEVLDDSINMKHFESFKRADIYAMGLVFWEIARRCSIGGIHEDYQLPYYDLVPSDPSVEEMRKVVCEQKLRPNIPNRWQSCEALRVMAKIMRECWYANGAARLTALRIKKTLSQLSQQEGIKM
As to conditions: kinase ALK5/TGFBR1, compound 10 uM; for remaining activity at 10 µM: read-out: % Enzyme Activity (relative to DMSO controls).

Test [5] concerns the target T5, 382 unique human kinases (Homo sapiens, UniProt P51817).
T5 construct: purchased Reaction Biology (HotSpot contract assay)
T5 sequence (P51817 1-358): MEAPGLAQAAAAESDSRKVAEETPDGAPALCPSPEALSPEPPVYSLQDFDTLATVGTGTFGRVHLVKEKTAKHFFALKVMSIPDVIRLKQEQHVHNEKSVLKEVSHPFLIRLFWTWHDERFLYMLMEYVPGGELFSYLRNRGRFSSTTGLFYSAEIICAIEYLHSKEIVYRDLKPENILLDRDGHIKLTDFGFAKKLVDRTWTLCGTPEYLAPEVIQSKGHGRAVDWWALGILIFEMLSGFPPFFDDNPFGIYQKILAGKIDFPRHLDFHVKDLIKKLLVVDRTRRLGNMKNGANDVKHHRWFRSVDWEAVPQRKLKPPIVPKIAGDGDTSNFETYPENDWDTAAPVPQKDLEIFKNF
The settings on record: PRKX, compound at 10 uM, duplicate values; for remaining activity at 10 µM: read-out: % Enzyme Activity (relative to DMSO controls).

Test [6] concerns the target T6, 382 unique human kinases (Homo sapiens, UniProt P35626).
T6 construct: purchased Reaction Biology (HotSpot contract assay)
T6 sequence (P35626 1-688): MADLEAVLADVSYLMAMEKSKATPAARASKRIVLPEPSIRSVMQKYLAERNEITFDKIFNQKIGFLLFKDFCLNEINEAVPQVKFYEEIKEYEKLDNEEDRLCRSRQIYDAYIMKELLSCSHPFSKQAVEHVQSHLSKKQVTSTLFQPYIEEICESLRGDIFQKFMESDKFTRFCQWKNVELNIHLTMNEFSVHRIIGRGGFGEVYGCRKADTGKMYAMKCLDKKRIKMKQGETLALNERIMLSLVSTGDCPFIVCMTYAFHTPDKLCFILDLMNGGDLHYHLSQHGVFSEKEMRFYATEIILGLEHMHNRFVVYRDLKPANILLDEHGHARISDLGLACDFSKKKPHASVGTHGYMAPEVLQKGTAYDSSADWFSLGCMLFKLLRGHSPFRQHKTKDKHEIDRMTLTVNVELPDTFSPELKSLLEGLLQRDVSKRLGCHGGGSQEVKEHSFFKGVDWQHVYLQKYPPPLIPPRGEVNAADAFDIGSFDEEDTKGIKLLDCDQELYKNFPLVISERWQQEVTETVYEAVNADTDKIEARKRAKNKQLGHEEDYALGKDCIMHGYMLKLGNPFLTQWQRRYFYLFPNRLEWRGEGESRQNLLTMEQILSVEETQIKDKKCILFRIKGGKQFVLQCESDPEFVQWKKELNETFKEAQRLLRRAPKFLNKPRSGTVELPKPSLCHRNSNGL
The settings on record: GRK3, 10 uM; for remaining activity at 10 µM: read-out: % Enzyme Activity (relative to DMSO controls).

The target of test [7] is T7, 382 unique human kinases (Homo sapiens, UniProt Q96RG2).
T7 construct: purchased Reaction Biology (HotSpot contract assay)
As to conditions: PASK, [ATP] 50 µM.

Test [8] concerns the target T8, 382 unique human kinases (Homo sapiens, UniProt Q9UEE5).
T8 construct: purchased Reaction Biology (HotSpot contract assay)
T8 sequence (Q9UEE5 1-414): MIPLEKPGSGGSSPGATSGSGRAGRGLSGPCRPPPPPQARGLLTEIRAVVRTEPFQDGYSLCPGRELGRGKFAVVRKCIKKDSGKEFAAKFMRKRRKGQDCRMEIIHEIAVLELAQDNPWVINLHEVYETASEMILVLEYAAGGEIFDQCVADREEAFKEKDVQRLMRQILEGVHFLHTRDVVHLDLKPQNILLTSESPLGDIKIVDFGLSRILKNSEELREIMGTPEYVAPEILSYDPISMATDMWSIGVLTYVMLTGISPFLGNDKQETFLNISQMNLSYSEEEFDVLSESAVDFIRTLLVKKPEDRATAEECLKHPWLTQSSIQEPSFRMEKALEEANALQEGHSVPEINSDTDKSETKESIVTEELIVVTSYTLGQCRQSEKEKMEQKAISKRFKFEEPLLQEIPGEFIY
As to conditions: DRAK1/STK17A, 10 uM; for remaining activity at 10 µM: read-out: % Enzyme Activity (relative to DMSO controls).

Test [9] concerns the target T9, 382 unique human kinases (Homo sapiens, UniProt Q9UIK4).
T9 construct: purchased Reaction Biology (HotSpot contract assay)
The settings on record: DAPK2, 10 uM; for remaining activity at 10 µM: read-out: % Enzyme Activity (relative to DMSO controls).

Test [10] concerns the target T10, 382 unique human kinases (Homo sapiens, UniProt Q9UQB9).
T10 construct: purchased Reaction Biology (HotSpot contract assay)
T10 sequence (Q9UQB9 1-309): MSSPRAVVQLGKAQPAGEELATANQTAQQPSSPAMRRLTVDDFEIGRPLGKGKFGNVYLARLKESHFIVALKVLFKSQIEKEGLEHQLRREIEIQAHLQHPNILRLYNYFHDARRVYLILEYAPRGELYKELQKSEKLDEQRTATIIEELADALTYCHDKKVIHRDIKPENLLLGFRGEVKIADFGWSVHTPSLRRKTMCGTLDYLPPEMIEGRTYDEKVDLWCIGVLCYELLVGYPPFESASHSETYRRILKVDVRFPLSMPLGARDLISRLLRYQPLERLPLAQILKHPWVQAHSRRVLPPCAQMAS
As to conditions: Aurora C, 10 uM; for remaining activity at 10 µM: read-out: % Enzyme Activity (relative to DMSO controls).

[11] abbreviates: compound 10 uM, read-out: % Enzyme Activity (relative to DMSO controls).

T1 sequence (P10721 26-976): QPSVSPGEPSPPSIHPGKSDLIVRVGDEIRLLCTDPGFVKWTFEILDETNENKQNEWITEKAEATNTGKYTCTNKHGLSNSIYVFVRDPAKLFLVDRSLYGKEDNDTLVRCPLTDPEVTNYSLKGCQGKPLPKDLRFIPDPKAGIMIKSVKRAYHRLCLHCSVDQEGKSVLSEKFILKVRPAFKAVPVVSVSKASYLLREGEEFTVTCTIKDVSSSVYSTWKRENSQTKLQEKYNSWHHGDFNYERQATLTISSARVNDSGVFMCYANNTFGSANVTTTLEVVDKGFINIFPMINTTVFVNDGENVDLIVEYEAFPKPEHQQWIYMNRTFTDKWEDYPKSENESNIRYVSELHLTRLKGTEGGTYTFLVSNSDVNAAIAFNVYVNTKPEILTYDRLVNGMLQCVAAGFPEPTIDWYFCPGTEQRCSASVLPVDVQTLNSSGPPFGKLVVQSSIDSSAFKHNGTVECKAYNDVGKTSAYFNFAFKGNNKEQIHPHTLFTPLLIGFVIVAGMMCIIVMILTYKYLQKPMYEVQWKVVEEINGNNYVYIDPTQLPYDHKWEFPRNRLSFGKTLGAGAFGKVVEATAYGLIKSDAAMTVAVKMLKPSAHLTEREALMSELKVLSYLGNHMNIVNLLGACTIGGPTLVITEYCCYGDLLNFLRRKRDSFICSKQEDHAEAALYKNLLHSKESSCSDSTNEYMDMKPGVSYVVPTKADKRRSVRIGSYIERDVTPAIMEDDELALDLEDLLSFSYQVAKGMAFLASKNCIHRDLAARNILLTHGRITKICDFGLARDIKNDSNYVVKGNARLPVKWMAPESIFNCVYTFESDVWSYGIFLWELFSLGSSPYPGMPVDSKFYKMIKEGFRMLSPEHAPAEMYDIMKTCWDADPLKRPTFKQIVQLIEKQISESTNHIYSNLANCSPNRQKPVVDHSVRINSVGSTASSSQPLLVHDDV
T7 sequence (Q96RG2 whole entry): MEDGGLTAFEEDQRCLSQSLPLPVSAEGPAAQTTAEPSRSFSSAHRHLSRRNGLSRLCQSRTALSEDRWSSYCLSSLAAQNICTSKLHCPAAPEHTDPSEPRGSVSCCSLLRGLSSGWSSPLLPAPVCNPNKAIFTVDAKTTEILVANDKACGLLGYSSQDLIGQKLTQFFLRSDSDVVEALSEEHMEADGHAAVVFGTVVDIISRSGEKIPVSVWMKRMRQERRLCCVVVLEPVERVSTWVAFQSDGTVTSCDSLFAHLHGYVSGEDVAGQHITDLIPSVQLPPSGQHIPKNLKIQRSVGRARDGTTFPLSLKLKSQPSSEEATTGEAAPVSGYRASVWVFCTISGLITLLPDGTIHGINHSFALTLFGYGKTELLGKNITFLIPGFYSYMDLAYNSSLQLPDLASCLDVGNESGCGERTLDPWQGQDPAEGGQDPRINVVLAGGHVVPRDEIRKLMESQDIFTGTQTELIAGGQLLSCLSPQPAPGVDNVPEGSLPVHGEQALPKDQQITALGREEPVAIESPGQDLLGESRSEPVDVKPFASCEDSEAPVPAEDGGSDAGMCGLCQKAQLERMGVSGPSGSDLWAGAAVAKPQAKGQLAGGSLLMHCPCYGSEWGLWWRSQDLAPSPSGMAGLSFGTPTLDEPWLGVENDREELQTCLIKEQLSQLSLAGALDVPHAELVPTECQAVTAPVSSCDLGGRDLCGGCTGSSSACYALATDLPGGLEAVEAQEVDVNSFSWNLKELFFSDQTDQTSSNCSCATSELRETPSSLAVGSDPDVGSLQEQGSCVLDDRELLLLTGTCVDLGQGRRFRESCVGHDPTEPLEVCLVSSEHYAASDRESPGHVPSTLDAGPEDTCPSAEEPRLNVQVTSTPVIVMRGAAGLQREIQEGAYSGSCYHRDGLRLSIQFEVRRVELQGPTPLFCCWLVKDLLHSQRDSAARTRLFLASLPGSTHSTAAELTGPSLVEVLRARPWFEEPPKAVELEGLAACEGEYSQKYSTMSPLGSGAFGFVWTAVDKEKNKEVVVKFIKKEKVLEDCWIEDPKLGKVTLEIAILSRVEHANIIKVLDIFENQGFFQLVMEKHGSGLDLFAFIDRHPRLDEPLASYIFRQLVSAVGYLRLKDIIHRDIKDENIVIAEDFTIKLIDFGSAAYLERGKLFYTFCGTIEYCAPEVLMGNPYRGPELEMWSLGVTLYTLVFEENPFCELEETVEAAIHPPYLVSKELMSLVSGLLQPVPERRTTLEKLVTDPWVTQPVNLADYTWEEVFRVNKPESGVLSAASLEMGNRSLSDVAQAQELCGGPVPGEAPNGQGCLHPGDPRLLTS
T3 sequence (P22607 23-806 V555M): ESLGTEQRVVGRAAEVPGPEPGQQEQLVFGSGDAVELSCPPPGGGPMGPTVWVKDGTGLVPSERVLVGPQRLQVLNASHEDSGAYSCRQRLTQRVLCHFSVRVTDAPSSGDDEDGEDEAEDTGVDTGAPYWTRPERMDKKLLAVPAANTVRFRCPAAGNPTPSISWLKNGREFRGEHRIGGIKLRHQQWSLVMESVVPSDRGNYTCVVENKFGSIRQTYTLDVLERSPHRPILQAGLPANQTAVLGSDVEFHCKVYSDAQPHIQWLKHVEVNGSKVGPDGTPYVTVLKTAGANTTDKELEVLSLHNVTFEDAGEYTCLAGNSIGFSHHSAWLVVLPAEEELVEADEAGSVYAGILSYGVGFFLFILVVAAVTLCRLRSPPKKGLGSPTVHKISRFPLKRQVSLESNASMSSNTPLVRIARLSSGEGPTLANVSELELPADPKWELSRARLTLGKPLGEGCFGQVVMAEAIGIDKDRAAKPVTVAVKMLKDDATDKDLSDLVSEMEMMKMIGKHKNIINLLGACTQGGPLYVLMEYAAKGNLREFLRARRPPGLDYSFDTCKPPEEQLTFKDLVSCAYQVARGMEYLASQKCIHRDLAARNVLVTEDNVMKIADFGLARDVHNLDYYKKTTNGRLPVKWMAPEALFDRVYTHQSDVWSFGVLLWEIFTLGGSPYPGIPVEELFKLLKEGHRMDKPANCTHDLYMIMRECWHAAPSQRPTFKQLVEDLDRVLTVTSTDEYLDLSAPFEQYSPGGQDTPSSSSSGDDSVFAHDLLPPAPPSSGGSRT
T2 sequence (P15056 whole entry V600A): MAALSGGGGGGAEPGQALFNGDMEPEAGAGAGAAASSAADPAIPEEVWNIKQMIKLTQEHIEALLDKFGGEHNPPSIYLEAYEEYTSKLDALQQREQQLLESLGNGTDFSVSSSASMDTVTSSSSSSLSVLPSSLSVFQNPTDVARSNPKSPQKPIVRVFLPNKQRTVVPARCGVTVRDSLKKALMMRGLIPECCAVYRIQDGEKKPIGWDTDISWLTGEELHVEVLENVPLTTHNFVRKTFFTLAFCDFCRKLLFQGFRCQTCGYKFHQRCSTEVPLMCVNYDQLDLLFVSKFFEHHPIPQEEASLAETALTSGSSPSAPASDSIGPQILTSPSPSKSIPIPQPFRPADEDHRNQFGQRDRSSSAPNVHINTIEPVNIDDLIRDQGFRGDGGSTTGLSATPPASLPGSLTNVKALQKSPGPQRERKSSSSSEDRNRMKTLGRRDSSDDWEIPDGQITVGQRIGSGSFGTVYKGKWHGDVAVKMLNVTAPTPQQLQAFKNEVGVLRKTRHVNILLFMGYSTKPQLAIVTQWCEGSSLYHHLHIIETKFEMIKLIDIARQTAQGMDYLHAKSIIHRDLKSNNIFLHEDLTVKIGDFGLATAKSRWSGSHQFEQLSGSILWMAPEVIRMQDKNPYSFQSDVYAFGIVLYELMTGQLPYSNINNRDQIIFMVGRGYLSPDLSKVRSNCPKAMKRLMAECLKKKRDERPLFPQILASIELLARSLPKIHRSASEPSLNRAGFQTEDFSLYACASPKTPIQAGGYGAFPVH
T9 sequence (Q9UIK4 whole entry): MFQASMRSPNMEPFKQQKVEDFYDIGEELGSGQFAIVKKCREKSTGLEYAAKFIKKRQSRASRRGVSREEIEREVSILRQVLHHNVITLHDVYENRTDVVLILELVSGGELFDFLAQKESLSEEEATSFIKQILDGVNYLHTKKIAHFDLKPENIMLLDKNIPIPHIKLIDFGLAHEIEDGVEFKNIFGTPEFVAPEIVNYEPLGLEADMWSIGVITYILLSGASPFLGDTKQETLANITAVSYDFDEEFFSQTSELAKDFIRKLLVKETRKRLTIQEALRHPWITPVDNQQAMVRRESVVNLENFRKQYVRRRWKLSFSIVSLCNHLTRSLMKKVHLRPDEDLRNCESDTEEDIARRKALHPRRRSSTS

As to `CC(C)c1cc(-c2n[nH]c(=O)n2-c2ccc3c(ccn3C)c2)c(O)cc1O` [Ganetespib (STA9090)], the remaining activity at 10 µM in [1] turned out to be 80.8%; in test [2] it was 119%; in [3], 65.2%; in [4], 90.1%; in [5], 108%.

Consider `CC(C)c1cc(-c2n[nH]c(=O)n2-c2ccc3c(ccn3C)c2)c(O)cc1O` [Ganetespib], for which the remaining activity at 10 µM in test [6] is 109%; in test [7] (setting [11]), 12.1%; in test [8], 106%; in [9], 96.6%; in test [10] it was 92.9%. For the same molecule, the remaining activity at 1 µM in test [7] (compound 1 uM, read-out: % Enzyme Activity (relative to DMSO controls)) is 49.7%.

As to `CCNC(=O)c1noc(-c2cc(C(C)C)c(O)cc2O)c1-c1ccc(CN2CCOCC2)cc1` [Luminespib (AUY-922)], the “% Enzyme Activity (relative to DMSO controls)” value in [1] amounted to 72.90%; in test [2] it was 102.37%; in [3] it was 124.56%; in test [4] it was 93.53%; in test [5], 112.11%. The remaining activity at 10 µM in [1] was 72.9%; in test [2], 105%; in test [3], 125%; in test [4] it was 94.7%; in test [5] it was 112%.

For the molecule `CCNC(=O)c1noc(-c2cc(C(C)C)c(O)cc2O)c1-c1ccc(CN2CCOCC2)cc1` [Luminespib], the “% Enzyme Activity (relative to DMSO controls)” value turned out to be 96.02% in test [6]; 98.65% in test [7] (compound 10 uM); 99.90% in [8]; 94.93% in test [9]; 94.32% in [10]. The remaining activity at 10 µM in test [6] is 97.9%; in test [7] (setting [11]) it was 99%; in test [8], 99.9%; in test [9] it was 95.4%; in [10] it was 96%.

Source of the values: article PMC8550792, “Evolution of kinase polypharmacology across HSP90 drug discovery” (Cell Chemical Biology, 2021).
